# From US8841312B2, “Fused pyridine, pyrimidine and triazine compounds as cell cycle inhibitors” (Amgen Inc., priority 2007, dated 2014)
# Assays:
# neointima formation = settings: animal models; cited from earlier work
# Cdk4/CyclinD1 = Cdk4/CyclinD1 (Homo sapiens (Human), UniProt P11802); assay: Cdk4 kinase inhibition assay with recombinant Cdk4/CyclinD1, Rb substrate, [33P]-ATP filter plate; type: biochemical; settings: 25 μM ATP, read-out: Cdk 4 IC50
# In short: (§1)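 Recombinant Cdk4/CyclinD1 or Cdk6/CyclinD3 phosphorylated Rb protein with [33P]-ATP for 1 h at room temperature. Protein was TCA-precipitated on filter plates and bound radioactivity counted. IC50 by nonlinear regression.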
# Cdk6/CyclinD3 = Cdk6/CyclinD3 (Homo sapiens (Human), UniProt Q00534); assay: Cdk6 kinase inhibition assay with recombinant Cdk6/CyclinD3, Rb substrate, [33P]-ATP filter plate; type: biochemical; settings: 25 μM ATP, read-out: Cdk 6 IC50
# Cdk6/CyclinD3, sequence (Q00534 whole entry): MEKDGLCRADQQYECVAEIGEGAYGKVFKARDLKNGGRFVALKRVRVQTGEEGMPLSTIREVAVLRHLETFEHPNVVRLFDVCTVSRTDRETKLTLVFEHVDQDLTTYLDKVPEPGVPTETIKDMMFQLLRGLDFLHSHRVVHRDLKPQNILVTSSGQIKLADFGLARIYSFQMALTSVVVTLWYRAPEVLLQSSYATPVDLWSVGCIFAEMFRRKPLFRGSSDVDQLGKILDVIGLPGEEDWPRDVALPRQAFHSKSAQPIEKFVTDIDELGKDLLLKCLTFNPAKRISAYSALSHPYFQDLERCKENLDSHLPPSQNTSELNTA
# Cdk6/CyclinD3, sequence (P30281 whole entry partner): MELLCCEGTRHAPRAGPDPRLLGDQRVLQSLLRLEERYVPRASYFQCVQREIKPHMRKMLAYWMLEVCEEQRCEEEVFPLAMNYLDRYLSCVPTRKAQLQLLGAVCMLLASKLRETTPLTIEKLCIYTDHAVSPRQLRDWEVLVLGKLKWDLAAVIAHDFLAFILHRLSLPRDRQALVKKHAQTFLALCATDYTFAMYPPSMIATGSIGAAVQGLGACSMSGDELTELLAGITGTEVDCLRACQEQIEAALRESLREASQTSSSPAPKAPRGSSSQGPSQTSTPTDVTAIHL
# In short: as §1
# Cdk4/CyclinD1, sequence (P11802 whole entry): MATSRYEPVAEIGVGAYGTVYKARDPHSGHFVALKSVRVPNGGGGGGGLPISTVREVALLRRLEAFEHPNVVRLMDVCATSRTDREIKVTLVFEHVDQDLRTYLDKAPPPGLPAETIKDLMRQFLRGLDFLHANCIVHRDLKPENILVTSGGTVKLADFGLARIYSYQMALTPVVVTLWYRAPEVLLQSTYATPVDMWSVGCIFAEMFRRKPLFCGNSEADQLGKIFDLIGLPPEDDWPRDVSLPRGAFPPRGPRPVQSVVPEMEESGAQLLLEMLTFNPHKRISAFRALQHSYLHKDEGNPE
# Cdk4/CyclinD1, sequence (P24385 whole entry partner): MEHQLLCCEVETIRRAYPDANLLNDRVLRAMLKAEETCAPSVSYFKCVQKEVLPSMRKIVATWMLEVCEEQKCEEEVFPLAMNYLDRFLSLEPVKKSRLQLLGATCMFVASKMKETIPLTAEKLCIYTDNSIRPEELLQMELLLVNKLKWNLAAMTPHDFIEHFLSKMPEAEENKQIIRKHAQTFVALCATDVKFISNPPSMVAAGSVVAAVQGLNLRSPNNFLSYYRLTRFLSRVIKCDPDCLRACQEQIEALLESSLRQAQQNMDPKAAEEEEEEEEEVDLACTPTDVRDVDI
Compound,inhibition of neointima formation (neointima formation),IC50 (Cdk4/CyclinD1) [nM],IC50 (Cdk6/CyclinD3) [nM]
COc1ccc(CNc2nc(N(CCO)CCO)nc3c2ncn3C(C)C)cc1 [CVT-313],significant inhibition of neointima formation,,
OCC1CCN(c2ccc(Nc3ncc4c5ccncc5n(C5CCCC5)c4n3)nn2)CC1 [Example 103],,5.6,2.6
C[C@@H](CO)Nc1ccc(Nc2ncc3c4ccncc4n(C4CCCC4)c3n2)nn1 [Example 296],,5.5,14
"O[C@H]1CCN(c2ccc(Nc3ncc4c5ccncc5n(C5CCCC5)c4n3)nn2)C1 [Example 19, (S)-9-cyclopentyl-N-(6-(3-hydroxypyrrolidin-1-yl)-3-pyridazinyl)-9H-pyrido[4′,3′:4,5]-pyrrolo[2,3d]pyrimidin-2-amine]",,4,10
"O=S(=O)(c1ccc(Nc2ncc3c4ccnc(F)c4n(C4CCCC4)c3n2)nc1)N1CCNCC1 [Example 228, 9-cyclopentyl-8-fluoro-N-(5-(1-piperazinylsulfonyl)-2-pyridinyl)-9H-pyrido[4′,3′:4,5]pyrrolo[2,3-d]pyrimidin-2-amine]",,15,3.9
"O[C@H]1CC[C@H](n2c3cnccc3c3cnc(Nc4ccc(N5CCNCC5)cn4)nc32)CC1 [Example 31, 4-[2-(5-piperazin-1-yl-pyridin-2-ylamino)-pyrido[4′,3′:4,5]pyrrolo[2,3-d]pyrimidin-9-yl]-trans-cyclohexanol]",,2.5,5.9
CC1(C)CN(c2ccc(Nc3ncc4c5ccncc5n(C5CCC5)c4n3)nc2)CCN1 [Example 343],,44,28
c1cc2c3cnc(Nc4ccc(NC5CCNCC5)cn4)nc3n(C3CCCC3)c2cn1 [Example 69],,17,31
"O=C(c1cnc(Nc2ncc3c4ccncc4n(C4CCCC4)c3n2)s1)N1CCNCC1 [Example 50, 9-cyclopentyl-N-(5-(1-piperazinylcarbonyl)-1,3-thiazol-2-yl)-9H-pyrido[4′,3′:4,5]pyrrolo[2,3-d]pyrimidin-2-amine]",,66,112
C[C@H]1CN(c2ccc(Nc3ncc4c5ccccc5n(C5CCCC5)c4n3)nn2)CCN1 [Example 302],,47,23
CCN(CCO)C1CCN(c2ccc(Nc3ncc4c5ccncc5n(C5CCCC5)c4n3)nc2)CC1 [Example 473],,9.7,28
"O=C(O)CN1CCN(c2ccc(Nc3ncc4c5ccncc5n(C5CCCC5)c4n3)nn2)CC1 [Example 218, (4-(6-((9-cyclopentyl-9H-pyrido[4′,3′:4,5]pyrrolo[2,3-d]pyrimidin-2-yl)amino)-3-pyridazinyl)-1-piperazinyl)acetic acid]",,1.39,3.6
"c1cc2c3cnc(Nc4ccc(N5CCNCC5)cn4)nc3n(CC3CCCCC3)c2cn1 [Example 32, (9-Cyclohexylmethyl-9H-pyrido[4′,3′:4,5]pyrrolo[2,3-d]pyrimidin-2-yl)-(5-piperazin-1-yl-pyridin-2-yl)-amine]",,13,30.4
